Assay results: ChEMBL document CHEMBL4680090 (J Med Chem, 2016)
Converted amounts (≈) assume the structure as drawn.

Assays:
[1] = target: High affinity nerve growth factor receptor (Homo sapiens, UniProt P04629)
[2] = target: BDNF/NT-3 growth factors receptor (Homo sapiens, UniProt Q16620)
[3] = target: T1, Voltage-gated inwardly rectifying potassium channel KCNH2 (Homo sapiens, UniProt Q12809)
[4] = in vitro; conditions: human, liver microsomes
[5] = test system: MDR1 (P-gp); assay: in vitro; conditions: dog, MDCK-MDR1
[6] = test system: human BCRP; assay: in vitro; conditions: dog
[7] = physchem; conditions: octanol/water, pH 7.4
[8] = human, hepatocytes, 4 h, 1 µM
[9] = test system: human BCRP; assay: in vitro; conditions: dog; remark: listed apart in the source
[10] = physchem; conditions: buffer, pH 6.5
[11] = target: T2, Aldehyde oxidase (Homo sapiens, UniProt Q06278); assay: Drug metabolism in human liver S9 fractions assessed as AO-mediated oxidation at fluoro-pyrrolopyridine motif at 10 uM incubated for 60 mins in absence of CYP cofactor NADP by HPLC-UV chromatography; type: ADME, subcellular; conditions: s9, 1 h
T2 sequence (Q06278 whole entry): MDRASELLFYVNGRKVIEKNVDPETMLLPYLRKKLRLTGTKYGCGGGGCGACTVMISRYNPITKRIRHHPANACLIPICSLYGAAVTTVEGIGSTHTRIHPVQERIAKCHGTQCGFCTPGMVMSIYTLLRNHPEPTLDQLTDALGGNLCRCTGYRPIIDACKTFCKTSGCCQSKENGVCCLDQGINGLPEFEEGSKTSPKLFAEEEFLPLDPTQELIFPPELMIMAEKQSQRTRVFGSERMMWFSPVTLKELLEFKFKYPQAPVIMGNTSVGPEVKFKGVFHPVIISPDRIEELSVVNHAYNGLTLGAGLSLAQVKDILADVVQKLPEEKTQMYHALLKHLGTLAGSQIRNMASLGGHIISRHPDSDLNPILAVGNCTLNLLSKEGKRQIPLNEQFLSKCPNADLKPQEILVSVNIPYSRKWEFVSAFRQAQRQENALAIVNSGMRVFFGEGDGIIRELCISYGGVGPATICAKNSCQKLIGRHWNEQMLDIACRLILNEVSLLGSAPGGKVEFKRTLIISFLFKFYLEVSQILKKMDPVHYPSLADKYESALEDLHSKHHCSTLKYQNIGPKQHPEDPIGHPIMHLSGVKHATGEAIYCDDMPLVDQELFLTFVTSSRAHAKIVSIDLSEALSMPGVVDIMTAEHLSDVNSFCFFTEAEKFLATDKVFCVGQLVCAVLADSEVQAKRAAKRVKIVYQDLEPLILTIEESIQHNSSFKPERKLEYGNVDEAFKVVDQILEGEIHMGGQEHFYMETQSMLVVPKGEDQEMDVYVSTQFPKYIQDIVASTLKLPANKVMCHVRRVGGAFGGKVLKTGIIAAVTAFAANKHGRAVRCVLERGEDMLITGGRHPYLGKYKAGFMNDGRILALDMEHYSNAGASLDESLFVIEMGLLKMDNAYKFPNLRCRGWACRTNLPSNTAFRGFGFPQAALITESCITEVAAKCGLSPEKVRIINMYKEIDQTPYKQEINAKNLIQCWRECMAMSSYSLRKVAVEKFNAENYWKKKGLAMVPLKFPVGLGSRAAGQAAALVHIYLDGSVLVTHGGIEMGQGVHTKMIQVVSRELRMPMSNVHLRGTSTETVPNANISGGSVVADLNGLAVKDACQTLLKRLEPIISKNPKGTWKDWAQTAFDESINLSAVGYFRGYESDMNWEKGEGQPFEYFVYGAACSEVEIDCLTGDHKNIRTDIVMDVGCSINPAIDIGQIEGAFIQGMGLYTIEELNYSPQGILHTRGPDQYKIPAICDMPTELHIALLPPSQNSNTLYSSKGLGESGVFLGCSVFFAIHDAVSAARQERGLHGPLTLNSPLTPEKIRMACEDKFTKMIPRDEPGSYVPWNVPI

[12] = target: T2, Aldehyde oxidase; assay: Drug metabolism in human liver S9 fractions assessed as AO-mediated oxidation at 2-aminopyrimidyl ring at 10 uM incubated for 60 mins in absence of CYP cofactor NADP by HPLC-UV chromatography; type: ADME, subcellular; conditions: s9, 1 h
[13] = target: T2, Aldehyde oxidase; assay: Drug metabolism in human liver S9 fractions assessed as AO-mediated oxidation on amino-pyrrolopyrimidine hinge binding group and central pyridine substituent at 10 uM incubated for 60 mins in absence of CYP cofactor NADP by HPLC-UV chromatography; type: ADME, subcellular; conditions: s9, 1 h
[14] = target: T2, Aldehyde oxidase; assay: Drug metabolism in human liver S9 fractions assessed as AO-mediated oxidation on pyrrolopyrimidine-hinge binding group and the central pyridine substituent at 10 uM incubated for 60 mins in absence of CYP cofactor NADP by HPLC-UV chromatography; type: ADME, subcellular; conditions: s9, 1 h
[15] = target: T2, Aldehyde oxidase; assay: Drug metabolism in human liver S9 fractions assessed as AO-mediated amide hydrolysis at 10 uM incubated for 60 mins in absence of CYP cofactor NADP by HPLC-UV chromatography; type: ADME, subcellular; conditions: s9, 1 h
[16] = in vivo; conditions: rat, brain and plasma, po, 100 mg/kg
[17] = target: T2, Aldehyde oxidase; assay: Drug metabolism in human liver S9 fractions assessed as AO-mediated mono-oxidised metabolite formation at 10 uM incubated for 60 mins in absence of CYP cofactor NADP by HPLC-UV chromatography; type: ADME, subcellular; conditions: s9, 1 h
[18] = target: T2, Aldehyde oxidase; assay: Drug metabolism in human liver S9 fractions assessed as AO-mediated mono-oxidised metabolite formation at 10 uM incubated for 60 mins in absence of CYP cofactor NADP and in presence of 50 uM AO inhibitor menadione by HPLC-UV chromatography; type: ADME, subcellular; conditions: s9, 1 h
[19] = target: T2, Aldehyde oxidase; assay: Drug metabolism in human liver S9 fractions assessed as AO-mediated mono-oxidised metabolite formation at 10 uM incubated for 60 mins in absence of CYP cofactor NADP and in presence of 50 uM XO inhibitor allopurinol by HPLC-UV chromatography; type: ADME, subcellular; conditions: s9, 1 h
[20] = target: T2, Aldehyde oxidase; assay: Drug metabolism in human liver S9 fractions assessed as AO-mediated oxidation on pyrrolopyrimidine-hinge binding group at 10 uM incubated for 60 mins in absence of CYP cofactor NADP by HPLC-UV chromatography; type: ADME, subcellular; conditions: s9, 1 h
[21] = target: T2, Aldehyde oxidase; assay: Drug metabolism in human liver S9 fractions assessed as AO-mediated oxidation on central pyridine substituent at 10 uM incubated for 60 mins in absence of CYP cofactor NADP by HPLC-UV chromatography; type: ADME, subcellular; conditions: s9, 1 h
[22] = Clearance in rat at 1 mg/kg, iv; type: ADME, organism-based; conditions: in vivo
[23] = Clearance in rat at 1 mg/kg, iv relative to hepatic blood flow; type: ADME, organism-based; conditions: in vivo
[24] = Volume of distribution in rat at 1 mg/kg, iv; type: ADME, organism-based; conditions: in vivo, read-out: Vdss
[25] = Half life in rat at 1 mg/kg, iv; type: ADME, organism-based; conditions: in vivo
[26] = Oral bioavailability in rat at 3 mg/kg; type: ADME, organism-based; conditions: in vivo
[27] = Toxicity in rat assessed as drug tolerability at 400 mg/kg/day during 7 day toxicological study; type: organism-based; conditions: in vivo, 168 h
[28] = target: T1, Voltage-gated inwardly rectifying potassium channel KCNH2; remark: listed apart in the source

Sequence of High affinity nerve growth factor receptor (P04629 whole entry): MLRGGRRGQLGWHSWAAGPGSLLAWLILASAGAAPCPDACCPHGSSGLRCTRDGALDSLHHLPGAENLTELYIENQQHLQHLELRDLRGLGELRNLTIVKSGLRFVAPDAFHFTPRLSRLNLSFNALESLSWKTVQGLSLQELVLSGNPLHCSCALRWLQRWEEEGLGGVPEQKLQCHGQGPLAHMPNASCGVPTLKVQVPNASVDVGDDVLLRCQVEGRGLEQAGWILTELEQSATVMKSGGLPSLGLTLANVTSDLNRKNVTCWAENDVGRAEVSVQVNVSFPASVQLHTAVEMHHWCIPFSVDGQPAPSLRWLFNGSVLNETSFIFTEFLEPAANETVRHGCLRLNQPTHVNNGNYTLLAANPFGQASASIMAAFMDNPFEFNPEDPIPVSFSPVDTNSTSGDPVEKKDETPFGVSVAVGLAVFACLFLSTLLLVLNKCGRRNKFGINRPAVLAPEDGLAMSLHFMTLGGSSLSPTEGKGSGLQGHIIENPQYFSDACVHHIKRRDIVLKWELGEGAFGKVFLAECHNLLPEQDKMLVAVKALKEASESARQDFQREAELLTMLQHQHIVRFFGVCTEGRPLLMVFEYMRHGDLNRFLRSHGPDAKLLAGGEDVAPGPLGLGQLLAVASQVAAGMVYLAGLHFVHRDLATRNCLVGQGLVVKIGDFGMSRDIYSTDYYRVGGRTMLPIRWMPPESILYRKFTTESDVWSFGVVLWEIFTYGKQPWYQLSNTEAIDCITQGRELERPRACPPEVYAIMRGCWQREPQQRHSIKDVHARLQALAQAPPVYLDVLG
Sequence of BDNF/NT-3 growth factors receptor (Q16620 whole entry): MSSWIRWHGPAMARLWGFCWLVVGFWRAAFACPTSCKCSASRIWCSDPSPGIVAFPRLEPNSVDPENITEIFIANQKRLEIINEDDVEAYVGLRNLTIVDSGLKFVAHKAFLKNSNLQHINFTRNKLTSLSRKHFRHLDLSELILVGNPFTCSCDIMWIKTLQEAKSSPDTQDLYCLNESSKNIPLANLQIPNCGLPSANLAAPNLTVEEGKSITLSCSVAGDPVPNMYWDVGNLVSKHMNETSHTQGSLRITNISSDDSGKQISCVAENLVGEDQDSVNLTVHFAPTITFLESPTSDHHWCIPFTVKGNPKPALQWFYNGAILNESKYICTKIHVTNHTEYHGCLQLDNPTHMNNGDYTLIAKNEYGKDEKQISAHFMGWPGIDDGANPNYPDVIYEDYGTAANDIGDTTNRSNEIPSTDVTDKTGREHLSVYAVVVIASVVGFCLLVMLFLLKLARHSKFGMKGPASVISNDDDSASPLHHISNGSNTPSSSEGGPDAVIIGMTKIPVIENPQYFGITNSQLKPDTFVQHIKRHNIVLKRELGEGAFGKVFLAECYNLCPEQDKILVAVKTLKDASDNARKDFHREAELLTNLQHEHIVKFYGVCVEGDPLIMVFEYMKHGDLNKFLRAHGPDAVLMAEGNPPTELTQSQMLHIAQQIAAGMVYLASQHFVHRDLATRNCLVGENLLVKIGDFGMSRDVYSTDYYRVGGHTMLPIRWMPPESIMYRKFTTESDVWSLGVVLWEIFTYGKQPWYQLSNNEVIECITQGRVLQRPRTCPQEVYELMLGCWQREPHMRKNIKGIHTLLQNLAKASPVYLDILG
T1 sequence (Q12809 whole entry): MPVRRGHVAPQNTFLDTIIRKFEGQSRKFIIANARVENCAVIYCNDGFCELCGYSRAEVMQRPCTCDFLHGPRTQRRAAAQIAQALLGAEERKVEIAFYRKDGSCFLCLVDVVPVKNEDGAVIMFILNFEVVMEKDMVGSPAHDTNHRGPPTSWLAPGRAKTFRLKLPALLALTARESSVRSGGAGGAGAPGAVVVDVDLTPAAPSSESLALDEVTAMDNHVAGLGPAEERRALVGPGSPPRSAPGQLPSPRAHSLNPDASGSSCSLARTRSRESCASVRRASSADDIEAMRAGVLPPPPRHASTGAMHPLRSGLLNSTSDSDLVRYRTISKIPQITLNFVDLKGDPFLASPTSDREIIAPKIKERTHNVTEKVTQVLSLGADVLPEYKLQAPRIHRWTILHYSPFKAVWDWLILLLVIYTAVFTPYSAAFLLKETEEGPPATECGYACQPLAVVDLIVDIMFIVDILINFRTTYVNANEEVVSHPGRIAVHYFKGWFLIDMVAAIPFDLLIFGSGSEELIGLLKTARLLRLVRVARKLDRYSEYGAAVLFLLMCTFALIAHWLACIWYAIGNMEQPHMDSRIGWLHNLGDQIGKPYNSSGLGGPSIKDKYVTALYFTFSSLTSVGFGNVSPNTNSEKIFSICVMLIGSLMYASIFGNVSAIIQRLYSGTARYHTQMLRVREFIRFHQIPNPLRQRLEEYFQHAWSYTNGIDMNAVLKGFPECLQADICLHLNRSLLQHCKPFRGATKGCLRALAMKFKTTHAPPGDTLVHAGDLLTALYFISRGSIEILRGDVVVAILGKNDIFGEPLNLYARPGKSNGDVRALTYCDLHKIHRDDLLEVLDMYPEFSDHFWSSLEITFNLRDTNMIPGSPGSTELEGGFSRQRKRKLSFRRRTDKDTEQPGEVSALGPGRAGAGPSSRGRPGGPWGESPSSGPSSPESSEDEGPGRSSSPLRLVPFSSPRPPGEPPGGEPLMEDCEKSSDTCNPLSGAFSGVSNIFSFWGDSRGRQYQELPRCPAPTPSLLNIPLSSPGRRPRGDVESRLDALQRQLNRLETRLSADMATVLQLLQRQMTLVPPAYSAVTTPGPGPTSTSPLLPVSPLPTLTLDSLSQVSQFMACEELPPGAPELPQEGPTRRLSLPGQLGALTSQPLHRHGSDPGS

| Compound | IC50 [1] [nM] | IC50 [2] [nM] | Ki [3] [nM] | microsomal CLint at 1 h, 1 µM [4] [µL/min/mg] | efflux ratio [5] | Papp A→B [6] [×10⁻⁶ cm/s] | logD [7] | CLH(app) [8] [µL/min] | solubility [10] [µM] | other results |
| --- | --- | --- | --- | --- | --- | --- | --- | --- | --- | --- |
| CC(C)n1cc(C(=O)c2cncc(NC(=O)Cn3ccc(C4CC4)n3)c2)c2cncc(F)c21 | 33 | 7 | 11300 | 37 | 3.8 | 15.4 | 3.5 |  |  |  |
| CC(C)n1cc(C(=O)c2cncc(NC(=O)Cn3ccc(C4CC4)n3)c2)c2cncnc21 | 18 | 4 | 11900 | 25 | 5.8 | 18.4 | 2.5 | 12 |  | efflux ratio [9]: 38 |
| CC(C)n1cc(C(=O)c2cncc(NC(=O)Cc3ccc(Cl)cc3)c2)c2cncnc21 | 12 | 4 | 5200 | 22 |  | 9.9 | 3.7 | 37 | 17.5 (≈ 7.59 µg/mL) |  |
| CC(C)n1cc(C(=O)c2cc(NC(=O)Cc3ccc(Cl)cc3)ccn2)c2cncc(F)c21 |  |  |  |  |  |  |  |  |  | Drug metabolism [11]: Metabolite_Notdetected |
| CC(C)n1cc(C(=O)c2cncc(NC(=O)Cn3ccc(C4CC4)n3)c2)c2cnccc21 | 17 | 5 | 1400 | 35 | 12.5 | 19.8 | 2.7 | 23 |  |  |
| CC(C)n1cc(C(=O)c2cncc(NC(=O)Cc3ccc(Cl)cc3)c2)c2cnc(N)nc21 | 6 | 2 | 16900 | < 8 |  | 5.2 | 4.2 | 14 | 12 (≈ 5.39 µg/mL) | Drug metabolism [12]: Metabolite_Notdetected |
| CC(C)n1cc(C(=O)c2cncc(NC(=O)Cn3ccc(C4CC4)n3)c2)c2cnc(N)nc21 | 8 | 5 | 38900 | 8 |  | 15.8 | 2.5 | 24 | 30 (≈ 13.3 µg/mL) | Drug metabolism [12]: Metabolite_Notdetected |
| CC(C)n1cc(C(=O)c2cncc(NC(=O)Cc3ccc(C#N)cc3)c2)c2c(N)ncnc21 | 73 | 8 | 9700 | 22 | 27 | 12.1 | 2.5 | 7 | 4.4 (≈ 1.93 µg/mL) | Drug metabolism [13]: Metabolite_Detected; Drug metabolism [14]: Metabolite_Detected; Drug metabolism [15]: Metabolite_Detected; Kp uu at 3 h [16]: 0.013 |
| CC(C)n1cc(C(=O)c2ccnc(NC(=O)Cc3ccc(F)cc3F)c2)c2c(N)ncnc21 | 3 |  | 8300 | 23 | 10.9 | 24.1 | 4.3 |  | 13.6 (≈ 6.13 µg/mL) | efflux ratio [9]: 10.9 |
| C[C@H](CO)n1cc(C(=O)c2ccnc(NC(=O)Cc3ccc(C#N)cc3)c2)c2cncnc21 |  |  |  |  |  |  |  |  |  | Drug metabolism [17]: Metabolite_Detected; Drug metabolism [18]: Metabolite_Notdetected; Drug metabolism [19]: Metabolite_Detected |
| CC(C)n1cc(C(=O)c2cncc(NC(=O)Cn3ccc(C(F)(F)F)n3)c2)c2cnccc21 | 13 | 7 | 1400 | < 8 |  | 11.3 | 3 | 12 | 7.5 (≈ 3.42 µg/mL) | Drug metabolism [20]: Metabolite_Notdetected; Drug metabolism [21]: Metabolite_Detected; clearance [22]: 50 mL/min/kg; CL [23]: 70%; Vd [24]: 1.5 L/kg; half-life [25]: 2.3 h; bioavailability [26]: 16%; Activity [27]: Non-Toxic; IC50 [28]: 1600 nM; Kp uu at 3 h [16]: 0.0083 |
| CC(C)(CO)n1cc(C(=O)c2cncc(NC(=O)Cc3ccc(Cl)cc3)c2)c2cnc(N)nc21 |  |  | > 4300 | < 8 |  | 6.4 | 3.7 | 11.2 | 29 (≈ 13.9 µg/mL) |  |
